This is an account of results in ChEMBL document CHEMBL3351906, “Bioactive triterpenoid saponins and phenolic compounds against glioma cells” (Bioorg Med Chem Lett, 2014).

In one assay the test system is C6. The assay can be described thus: Inhibition of cell proliferation of rat C6 cells assessed as cell viability at 100 uM after 72 hrs by sulforhodamine B assay. The class given is functional. To be noted: C6, 72 h, read-out: Activity. For orientation: The SRB assay estimates cell density from bound dye.
In the next assay the test system is U-251. Description: Inhibition of cell proliferation of human U251 cells assessed as cell viability at 100 uM after 72 hrs by sulforhodamine B assay. Format: functional. To be noted: U-251, 72 h, read-out: Activity.

As for `O=C(/C=C/c1ccc(O)c(O)c1)O[C@H]1[C@H](O)C[C@@](O)(C(=O)O)C[C@H]1O`, the viability at 100 µM with C6 was 133%; in the assay on U-251, 52.8%.

As to `COc1c(O)ccc(O)c1-c1cc(=O)c2c(O)cc(O)c(OC)c2o1`, the viability at 100 µM with C6 amounted to 57.7%; in the assay with U-251, 87.5%.

Turning to `CC(C)=CCC[C@](C)(O[C@@H]1O[C@H](CO)[C@@H](O)[C@H](O)[C@H]1O)[C@H]1CC[C@]2(C)[C@@H]1[C@H](O)C[C@@H]1[C@@]3(C)CC[C@H](O[C@@H]4O[C@H](CO)[C@@H](O)[C@H](O)[C@H]4O)C(C)(C)[C@@H]3CC[C@]12C` [GINSENOSIDE F2], the results for the viability at 100 µM in the assay with C6 and in the assay on U-251 were 117% and 64.6%, respectively.

Consider `C/C=C/C(=O)OC[C@H]1O[C@@H](O[C@H]2[C@H](O[C@H]3CC[C@]4(C)[C@H]5C[C@@H](O)[C@@H]6[C@@H]([C@](C)(CCC=C(C)C)O[C@@H]7O[C@H](CO[C@@H]8O[C@H](CO)[C@@H](O)[C@H](O)[C@H]8O)[C@@H](O)[C@H](O)[C@H]7O)CC[C@@]6(C)[C@]5(C)CC[C@H]4C3(C)C)O[C@H](CO)[C@@H](O)[C@@H]2O)[C@H](O)[C@@H](O)[C@@H]1O`, for which the figures for the viability at 100 µM in the assay with C6 and in the assay on U-251 were 99.4% and 97.2%, respectively.

In the case of `CC(C)=CCC[C@](C)(O)[C@H]1CC[C@]2(C)[C@@H]1[C@H](O)C[C@@H]1[C@@]3(C)CC[C@H](O)C(C)(C)[C@@H]3[C@@H](O[C@@H]3O[C@H](CO)[C@@H](O)[C@H](O)[C@H]3O[C@@H]3O[C@@H](C)[C@H](O)[C@@H](O)[C@H]3O)C[C@]12C` [GINSENOSIDE RG2], the viability at 100 µM in the assay with C6 was found to be 96.5%; in the assay with U-251 it was 103%.

For the compound `CC(C)=CCC[C@](C)(O[C@@H]1O[C@H](CO)[C@@H](O)[C@H](O)[C@H]1O)[C@H]1CC[C@]2(C)[C@@H]1[C@H](O)C[C@@H]1[C@@]3(C)CC[C@H](O[C@@H]4O[C@H](CO)[C@@H](O)[C@H](O)[C@H]4O)C(C)(C)[C@@H]3[C@@H](O)C[C@]12C`, the viability at 100 µM is 65.6% in the assay with C6 and 92.5% with U-251.

`C/C=C(/C)C(=O)O[C@H]1[C@H](O)[C@]2(CO)[C@H](O)C[C@]3(C)C(=CC[C@@H]4[C@@]5(C)CC[C@H](O[C@@H]6O[C@H](C(=O)O)[C@@H](O[C@@H]7O[C@H](CO)[C@@H](O)[C@H](O)[C@H]7O)[C@H](O)[C@H]6O[C@@H]6O[C@H](CO)[C@@H](O)[C@H](O)[C@H]6O)[C@](C)(CO)[C@@H]5CC[C@]43C)[C@@H]2CC1(C)C`: the viability at 100 µM in the assay on C6 turned out to be 90.7%; in the assay on U-251, 94.6%.

Take `C[C@@H]1O[C@@H](OC[C@H]2O[C@@H](Oc3c(-c4ccc(O)c(O)c4)oc4cc(O)cc(O)c4c3=O)[C@H](O)[C@@H](O)[C@@H]2O)[C@H](O)[C@H](O)[C@H]1O` [RUTIN]: the figures for the viability at 100 µM in the assay on C6 and in the assay with U-251 were 62.1% and 61.5%, respectively.

As for `CC1(C)CC[C@]2(C(=O)O)CC[C@]3(C)C(=CC[C@@H]4[C@@]5(C)CC[C@H](O)C(C)(C)[C@@H]5CC[C@]43C)[C@@H]2C1` [OLEANOLIC_ACID], the viability at 100 µM in the assay with C6 stood at 59.2%; in the assay on U-251, 67.8%.

`C/C=C(\C)C(=O)O[C@H]1[C@H](O)[C@]2(CO)[C@H](O)C[C@]3(C)C(=CC[C@@H]4[C@@]5(C)CC[C@H](O[C@@H]6O[C@H](C(=O)O)[C@@H](O[C@@H]7O[C@H](CO)[C@@H](O)[C@H](O)[C@H]7O)[C@H](O)[C@H]6O[C@@H]6O[C@H](CO)[C@@H](O)[C@H](O)[C@H]6O)[C@@](C)(CO)[C@@H]5CC[C@]43C)[C@@H]2CC1(C)C`: the viability at 100 µM in the assay on C6 came to 89.6%; with U-251 it was 92.7%.
